ChEMBL document CHEMBL1201862, “PubChem BioAssay data set” (2004)
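The compound was tested at five concentrations on cells cultured in 96-well plates, with a 48-hour exposure period. GI50: concentration for 50% inhibition of growth.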 Calls of active or inactive are those of the source. Rule as the data show it: active = GI50 up to about 1.1 µM and inactive = higher.

Columns and labels:
Test in all cases: growth of human tumour cells (NCI), 48 h
HT-29 = tested on: HT-29
SW-620 = tested on: SW-620
CCRF-CEM = tested on: CCRF-CEM
BT-549 = tested on: BT-549
T47D = tested on: T47D
TK-10 = tested on: TK-10
NCI-H226 = tested on: NCI-H226
786-0 = tested on: 786-0
Hs-578T = tested on: Hs-578T
SF-295 = tested on: SF-295
IGROV-1 = tested on: IGROV-1
PC-3 = tested on: PC-3
SF-539 = tested on: SF-539
SF-268 = tested on: SF-268
OVCAR-3 = tested on: OVCAR-3
UO-31 = tested on: UO-31
KM12 = tested on: KM12
UACC-62 = tested on: UACC-62
MDA-MB-231 = tested on: MDA-MB-231
NCI/ADR-RES = tested on: NCI/ADR-RES
SNB-19 = tested on: SNB-19
RXF 393 = tested on: RXF 393
Malme-3M = tested on: Malme-3M
OVCAR-5 = tested on: OVCAR-5
NCI-H460 = tested on: NCI-H460
EKVX = tested on: EKVX
HCT-15 = tested on: HCT-15
SK-MEL-28 = tested on: SK-MEL-28
U-251 = tested on: U-251
HL-60 = tested on: HL-60
HCC 2998 = tested on: HCC 2998
NCI-H522 = tested on: NCI-H522
SNB-75 = tested on: SNB-75
K562 = tested on: K562
OVCAR-4 = tested on: OVCAR-4
SN12C = tested on: SN12C
A549 = tested on: A549
COLO 205 = tested on: COLO 205
HCT-116 = tested on: HCT-116
SK-MEL-5 = tested on: SK-MEL-5
LOX IMVI = tested on: LOX IMVI
CAKI-1 = tested on: CAKI-1
HOP-62 = tested on: HOP-62
SK-OV-3 = tested on: SK-OV-3
SK-MEL-2 = tested on: SK-MEL-2
MOLT-4 = tested on: MOLT-4
UACC-257 = tested on: UACC-257
DU-145 = tested on: DU-145
A498 = tested on: A498
NCI-H23 = tested on: NCI-H23
OVCAR-8 = tested on: OVCAR-8
HOP-92 = tested on: HOP-92
MDA-MB-435 = tested on: MDA-MB-435
SR = tested on: SR
M14 = tested on: M14
RPMI-8226 = tested on: RPMI-8226
ACHN = tested on: ACHN
MCF7 = tested on: MCF7

Measured: GI50

COC(=O)c1c[nH]c2c1-c1cc(C(=O)OCc3ccccc3)n(S(=O)(=O)c3ccc(C)cc3)c1C(=O)C2=O
inactive: TK-10 2 µM | OVCAR-5 1.56 µM | NCI-H460 1.24 µM | K562 4.99 µM | CAKI-1 1.31 µM | SK-OV-3 1.24 µM | A498 1.85 µM
active: HT-29 0.473 µM | SW-620 0.214 µM | CCRF-CEM 0.346 µM | BT-549 0.19 µM | T47D 0.871 µM | NCI-H226 0.729 µM | 786-0 0.22 µM | Hs-578T 0.578 µM | SF-295 0.17 µM | IGROV-1 0.372 µM | PC-3 0.283 µM | SF-539 0.197 µM | SF-268 0.234 µM | OVCAR-3 0.0316 µM | UO-31 0.327 µM | KM12 0.25 µM | UACC-62 0.188 µM | MDA-MB-231 0.0481 µM | NCI/ADR-RES 0.45 µM | SNB-19 0.193 µM | RXF 393 0.214 µM | Malme-3M 0.103 µM | EKVX 0.173 µM | SK-MEL-28 0.12 µM | U-251 0.317 µM | HL-60 0.144 µM | HCC 2998 0.578 µM | NCI-H522 0.207 µM | SNB-75 0.189 µM | OVCAR-4 0.299 µM | SN12C 0.165 µM | A549 0.716 µM | COLO 205 0.805 µM | HCT-116 0.228 µM | SK-MEL-5 0.132 µM | LOX IMVI 0.139 µM | HOP-62 0.376 µM | SK-MEL-2 0.195 µM | MOLT-4 0.356 µM | UACC-257 0.156 µM | DU-145 0.154 µM | NCI-H23 0.149 µM | OVCAR-8 0.237 µM | HOP-92 0.27 µM | MDA-MB-435 0.0318 µM | SR 0.262 µM | M14 0.155 µM | RPMI-8226 0.362 µM | ACHN 0.28 µM | MCF7 0.184 µM
0.194 µM: HCT-15

CN(C)NC1=NS(=O)(=O)c2cc3c(cc2S1)N(N(C)C)C(=O)c1cc2c(cc1N(N(C)C)C3=O)SC(NN(C)C)=NS2(=O)=O
> 10 µM: HCT-15
inactive: HT-29 > 10 µM | SW-620 > 10 µM | CCRF-CEM > 10 µM | BT-549 > 10 µM | T47D > 10 µM | TK-10 > 10 µM | NCI-H226 > 10 µM | 786-0 > 10 µM | Hs-578T > 10 µM | SF-295 > 10 µM | IGROV-1 > 10 µM | PC-3 > 10 µM | SF-539 > 10 µM | SF-268 > 10 µM | OVCAR-3 > 10 µM | UO-31 > 10 µM | KM12 > 10 µM | NCI/ADR-RES > 10 µM | SNB-19 > 10 µM | RXF 393 > 10 µM | Malme-3M > 10 µM | OVCAR-5 > 10 µM | NCI-H460 > 10 µM | EKVX > 10 µM | SK-MEL-28 > 10 µM | U-251 > 10 µM | HL-60 > 10 µM | HCC 2998 > 10 µM | NCI-H522 > 10 µM | SNB-75 > 10 µM | K562 > 10 µM | OVCAR-4 > 10 µM | SN12C > 10 µM | A549 > 10 µM | COLO 205 > 10 µM | HCT-116 > 10 µM | SK-MEL-5 > 10 µM | LOX IMVI > 10 µM | CAKI-1 > 10 µM | HOP-62 > 10 µM | SK-OV-3 > 10 µM | SK-MEL-2 > 10 µM | MOLT-4 > 10 µM | UACC-257 > 10 µM | DU-145 > 10 µM | A498 > 10 µM | NCI-H23 > 10 µM | OVCAR-8 > 10 µM | HOP-92 > 10 µM | SR > 10 µM | M14 > 10 µM | RPMI-8226 > 10 µM | ACHN > 10 µM | MCF7 > 10 µM

CCCCCCCCCCCCC/C=C/[C@H]1[C@@H](C(=O)OC)N1[S+]([O-])c1ccc(C)cc1 (stereo not given in full)
inactive: SW-620 > 100 µM | CCRF-CEM 52.5 µM | BT-549 > 100 µM | T47D 22.9 µM | TK-10 > 100 µM | 786-0 > 100 µM | IGROV-1 > 100 µM | PC-3 > 100 µM | OVCAR-3 > 100 µM | UO-31 > 100 µM | UACC-62 > 100 µM | Malme-3M > 100 µM | EKVX 88.3 µM | SK-MEL-28 > 100 µM | U-251 > 100 µM | HL-60 21.2 µM | NCI-H522 71.4 µM | K562 31.3 µM | COLO 205 > 100 µM | HCT-116 > 100 µM | SK-MEL-5 35.8 µM | LOX IMVI > 100 µM | HOP-62 > 100 µM | SK-MEL-2 > 100 µM | MOLT-4 87.5 µM | UACC-257 36.3 µM | DU-145 > 100 µM | A498 > 100 µM | NCI-H23 > 100 µM | HOP-92 > 100 µM | MDA-MB-435 > 100 µM | SR 21.3 µM | RPMI-8226 12.1 µM | ACHN > 100 µM

O=C(O)C1C(Br)(c2ccccc2)C1(Br)c1ccccc1 (stereo not given)
inactive: HT-29 20.7 µM | SW-620 31.4 µM | BT-549 19.9 µM | T47D 17.6 µM | TK-10 33.7 µM | NCI-H226 27.2 µM | 786-0 32.3 µM | Hs-578T 37.8 µM | SF-295 37.9 µM | IGROV-1 17.8 µM | PC-3 36.5 µM | SF-539 52.7 µM | SF-268 24.3 µM | OVCAR-3 50.4 µM | UO-31 16.2 µM | KM12 33.4 µM | UACC-62 17.9 µM | MDA-MB-231 39.7 µM | NCI/ADR-RES 52.4 µM | SNB-19 27.4 µM | RXF 393 19.5 µM | Malme-3M 35.6 µM | OVCAR-5 58.9 µM | NCI-H460 14.2 µM | EKVX 86.7 µM | SK-MEL-28 21.5 µM | U-251 27.6 µM | HL-60 12.4 µM | HCC 2998 22.6 µM | NCI-H522 17.6 µM | SNB-75 35.3 µM | K562 20.1 µM | OVCAR-4 28.7 µM | SN12C 34.4 µM | A549 39 µM | COLO 205 13.4 µM | HCT-116 39.7 µM | SK-MEL-5 28.8 µM | LOX IMVI 22.2 µM | CAKI-1 23.9 µM | HOP-62 37 µM | SK-OV-3 27.5 µM | SK-MEL-2 37.5 µM | MOLT-4 15.2 µM | UACC-257 48.9 µM | DU-145 > 100 µM | A498 25.5 µM | NCI-H23 38.4 µM | OVCAR-8 23 µM | HOP-92 42.7 µM | MDA-MB-435 41.2 µM | SR 2.88 µM | M14 48.2 µM | RPMI-8226 11.8 µM | ACHN 14.3 µM | MCF7 22 µM
18.5 µM: HCT-15

COc1ccccc1-c1cc(O)c2c(C)cc(C)nc2n1
inactive: HT-29 56.8 µM | SW-620 61.7 µM | CCRF-CEM 47.9 µM | BT-549 96.2 µM | T47D 8.13 µM | TK-10 > 100 µM | NCI-H226 > 100 µM | Hs-578T > 100 µM | IGROV-1 30.5 µM | SF-539 > 100 µM | SF-268 84.3 µM | UO-31 47.1 µM | KM12 29.1 µM | UACC-62 71.9 µM | MDA-MB-231 84.3 µM | NCI/ADR-RES 54.7 µM | SNB-19 73.3 µM | RXF 393 63.7 µM | Malme-3M 48 µM | OVCAR-5 > 100 µM | EKVX 67.5 µM | SK-MEL-28 > 100 µM | HCC 2998 > 100 µM | NCI-H522 43.7 µM | K562 67.9 µM | OVCAR-4 56.1 µM | SN12C 70.1 µM | A549 59.7 µM | COLO 205 36.1 µM | LOX IMVI 75.2 µM | CAKI-1 40.3 µM | HOP-62 > 100 µM | SK-OV-3 > 100 µM | SK-MEL-2 45.9 µM | MOLT-4 30 µM | UACC-257 50.5 µM | DU-145 > 100 µM | A498 39.6 µM | NCI-H23 56.1 µM | OVCAR-8 90.2 µM | HOP-92 31.8 µM | M14 79.8 µM | RPMI-8226 38.4 µM | ACHN 46.3 µM | MCF7 46.8 µM
58.3 µM: HCT-15
